According to US11518746B2, “Nitrogen ring linked deoxyuridine triphosphatase inhibitors” (CV6 Therapeutics (NI) Limited, priority 2016, dated 2022):

Columns and labels:
[1] = test system: colorectal (HCT116 and SW620) cell line models; experiment: MTS growth inhibition assay; type: cell-based; conditions: increasing concentrations of 5-FU between 0 and 100 μmol/L
Method: The Cell Titer AQueous MTS assay (Promega) is carried out according to the manufacturers guidelines. […] The combination effect is determined by the combination index (CI) method utilizing Calcusyn software (Biosoft, Ferguson, Mo.). Fraction affected (FA) is calculated from the percent growth inhibition: FA=[…]. CI values <1, synergism; 1-1.2, additive and >1.2, antagonism.
Test compounds are evaluated for their antitumor activity in colorectal cancer cells using the MTS growth inhibition assay. HCT116 and SW620 cells are exposed to increasing concentrations of each agent for 72 hours and growth inhibition is directly compared to vehicle-treated controls. The NSCLC cell lines A549 and H1299 are exposed to increasing concentrations of each agent for 72 hours and growth inhibition is directly compared to vehicle-treated controls.
MTS growth inhibition assays are performed to evaluate the effectiveness of the test compounds alone and in combination with the fluoropyrimidine thymidylate synthase (TS) inhibitor 5-fluorouracil (5-FU) at inhibiting the growth of colorectal (HCT116 and SW620) cell line models. […] Simultaneous treatment with increasing concentrations of 5-FU and a test compound at fixed concentrations of 25 μmol/L is determined.

[2] = target: T1, Recombinant human deoxyuridine nucleotidohydrolase (dUTPase) (Homo sapiens, UniProt P33316); experiment: dUTPase inhibition, fluorescence-based DNA polymerase assay; type: biochemical; conditions: for % relative inhibition vs. positive control: mean over three concentrations, typically 100, 50 and 25 μmol/L, compared to in-run positive control
T1 construct: made in house
T1 sequence (P33316 1-164 isoform P33316-2): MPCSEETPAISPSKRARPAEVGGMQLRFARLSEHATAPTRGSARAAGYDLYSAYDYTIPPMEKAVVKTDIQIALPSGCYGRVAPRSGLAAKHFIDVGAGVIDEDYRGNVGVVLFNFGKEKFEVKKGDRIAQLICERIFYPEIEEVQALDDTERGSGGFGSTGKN
Excerpt: Recombinant human deoxyuridine nucleotidohydrolase (dUTPase) is expressed and purified as described in Ladner R D, Carr S A, Huddleston M J, McNulty D E, Caradonna S J. J Biol Chem. 1996 Mar. 29; 271(13):7752-7. All drugs stocks are aliquoted and diluted as appropriate prior to use. The oligonucleotide primer, templates and fluorophore- and quencher-labeled detection probes are synthesized by Integrated DNA Technologies (Coralville, Iowa), subjected to polyacrylamide gel electrophoresis purification and reconstituted in Omnipur sterile nuclease-free water (EMD Chemicals USA, Gibbstown N.J.) at a stock concentration of 100 μmol/L. The two non-emissive (dark) quenching molecules incorporated into the detection probes include the Iowa black fluorescein quencher (IBFQ; absorption max 531 nm) and ZEN (non-abbreviation; absorption max 532 nm). The fluorescent label utilized is 6-FAM (5′-carboxyfluorescein; excitation max.=494 nm, emission max.=520 nm). Probes are further diluted to a working stock of 10 μmol/L and aliquoted to avoid repeated freeze/thaw cycles. AmpliTaq Gold DNA Polymerase, GeneAmp 10×PCR Buffer 2, MgCl2 and MicroAmp Optical 96-well Reaction Plates are purchased from Applied Biosystems (Carlsbad, Calif.). dNTPs are purchased individually at stock concentrations of 100 mmol/L from New England Biolabs at HPLC-certified >99% purity (Ipswich, Mass.).
Reaction mixtures contained primer, probe and template at an equimolar final concentration of 0.4 μmol/L. Magnesium chloride (MgCl2) is included at a final concentration of 2 mmol/L. Non-limiting dNTPs are included in the reaction mix in excess at a final concentration of 100 μmol/L (dUTP/dTTP is excluded). AmpliTaq Gold DNA polymerase is added at 0.875 U/reaction, 2.5 μl of 10×PCR buffer 2 added and nuclease-free ddH2O added to a final reaction volume of 25 μl. […] Thermal profiling and fluorescence detection is performed using a customized thermal program on board a Roche Lightcycler LC480 Instrument II. […] Raw fluorescence spectra for 6-FAM is measured at specified time intervals to follow assay progression on board a Roche LightCycler 480 Software Version 1.5 and exported and analyzed in Microsoft Excel (Microsoft, Redmond Wash.) and Prism (GraphPad Software, La Jolla Calif.). Fluorescence values for blank reactions (limiting dNTP omitted) are subtracted to give normalized fluorescence units (NFU) to account for background fluorescence.
Test compounds are screened in a fluorescence-based assay. […] This displacement effectively disrupts the Förster resonance energy transfer (FRET) and the resulting fluorescence detected upon excitation is directly proportional to the amount of the dUTP available in the assay for incorporation. […]

[3] = test system: colorectal (HCT116), breast (MCF-7) and non-small cell lung (H1299, A549, H358 and H460) cell line models; experiment: Colony forming assay; type: cell-based; conditions: increasing concentrations of FUdR between 0.5 and 2.5 μmol/L
Method: Colony forming assay showing the ability of colon (SW620, HCT116), non-small cell lung (A549, H460, H1299 and H358) and breast (MCF7) cancer cells to survive and proliferate following transient 24 hour exposure to test compounds, FUdR and combinations are determined. Specifically, cells are seeded at densities between 50 and 100 cells/well in 24-well plates. Twenty-four hours later, cells are treated with increasing concentrations of a rtest compound, a fixed dose of FUdR and combinations of these. After 24 hours, drug is removed, cells are rinsed and allowed to outgrow for 10-14 days. At the conclusion of the outgrowth, cells are fixed in 60% ice cold methanol and stained with 0.1% crystal violet, scanned and counted. Data is presented as percentage of untreated controls (mean±SD). Fraction affected and combination indexes are calculated according to the method of Chou and Talalay where <1 is indicative of a synergistic drug interaction.
Colony forming assays are performed to evaluate the effectiveness of test compounds alone and in combination with the fluoropyrimidine thymidylate synthase (TS) inhibitor fluorodeoxyuridine (FUdR) at reducing cancer cell viability in colorectal (HCT116), breast (MCF-7) and non-small cell lung (H1299, A549, H358 and H460) cell line models. […]

## O=c1[nH]cc(F)c(=O)[nH]1 [Example 5-FU, 5-fluorouracil]
[1]
  growth inhibition: dose-dependent increases in growth inhibition

## O=C1CN(CCCC(=O)N2CCC[C@H]2C(O)(c2ccccc2)c2ccccc2)C(=O)N1 [Example 79, (5)-1-(4-(2-(hydroxydiphenylmethyl)pyrrolidin-1-yl)-4-oxobutyl)imidazolidine-2,4-dione]
[2]
  IC50: 1000 nM
  % relative inhibition vs. positive control: 75%

## COc1ccc(NCCCS(=O)(=O)N2CCCC2C(C)c2ccc(F)c(OCC3CC3)c2)c(=O)[nH]1 (stereo not drawn) [Example 80, 3-((3-((2-(1-(3-(cyclopropylmethoxy)-4-fluorophenyl)ethyl)pyrrolidin-1-yl)sulfonyl)propyl)amino)-6-methoxypyridin-2(1H)-one]
[2]
  % relative inhibition vs. positive control: 22%

## CC(c1ccc(F)c(OCC2CC2)c1)C1CCCN1S(=O)(=O)CCCNC1CCC(=O)NC1=O (stereo not drawn) [Example 82, 3-((3-((2-(1-(3-(cyclopropylmethoxy)-4-fluorophenyl)ethyl)pyrrolidin-1-yl)sulfonyl)propyl)amino)piperidine-2,6-dione]
[2]
  % relative inhibition vs. positive control: 13%

## O=c1[nH]c(=O)n([C@H]2C[C@H](O)[C@@H](CO)O2)cc1F [FUdR, fluorodeoxyuridine]
[3]
  colonies formed: dose-dependent decreases in colonies formed
